# Measurements taken from patent US11491134B2, “Composition for inhibiting skin cell proliferation and/or anti-inflammation method for inhibiting skin cell proliferation and/or anti-inflammation and method for treating skin diseases and/or inflammatory diseases” (Industrial Technology Research Institute, priority 2019, dated 2022).
# Tested on: keratinocytes, HaCaT cells
# Test: Inhibition rate on keratinocyte (HaCaT cell) proliferation, MTT
# Assay type: cell-based
# Details: Homo sapiens
# Experimental: Dimethyl sulfoxide (DMSO) was used as a solvent to prepare apigenin test samples with different concentrations and luteolin test samples with different concentrations. 9 batches of experiments were performed, which respectively were Batch 1 to Batch 9. There were 6 independent experiments in each batch of experiments. In each independent experiment, inhibition rate of an apigenin test sample with a specific concentration on keratinocyte proliferation and inhibition rate of a luteolin test sample with a specific concentration on keratinocyte proliferation were determined, and inhibition rate of a combination of an apigenin test sample with the said specific concentration and a luteolin test sample with the said specific concentration on keratinocyte proliferation was determined. Between the independent experiments, concentrations of apigenin test samples used were different, and concentrations of luteolin test samples used were also different, however, mole ratios or weight ratios of apigenin test samples to luteolin test samples were the same. Moreover, between the batches of experiments, mole ratios or weight ratios of apigenin test samples to luteolin test samples were different. 5×10^3 keratinocytes, HaCaT cells, were inoculated in a 96-well culture plate and then placed in a 37° C. and 5% CO2 incubator for culturing overnight, and cell numbers at this time point (T0) was used as a benchmark for cell proliferation. After overnight culture, a test sample was added to the cells in the culture plate (refer to Table 1, and the cells of the control group were only treated with dimethyl sulfoxide) for co-culturing for 48 hours (T48). After that, the supernatant in the culture plate was removed. After the supernatant was removed, 50 μL MTT solution (0.5 mg/mL; Life Technologies Cat. No. M-6494) was added to cells and then the culture plate was placed in a 37° C. and 5% CO2 incubator for culturing for 1.5 hours. After that, 150 μL DMSO (J. T. Baker, Cat. No. 9224-03) was added to the cells in the culture plate and shaken for 5 minutes. Thereafter, the absorbance of each well of the culture plate was determined at 570 nm by a continuous wavelength microplate reader, and inhibition rate on cell proliferation was calculated through the following formula: Inhibition rate on cell proliferation=T48 Control group570 nm−T48 Experimental group570 nm)/(T48 Control group570 nm−T0 Control group570 nm) In this experiment, the synergistic effects of apigenin and luteolin were evaluated by CalcuSyn software (BIOSOFT). CalcuSyn software is an analysis software which is commonly used to analyze the drug dosage effect of single drug and multiple drugs at present. CalcuSyn software can be used to analyze drug complex interactions and automatically quantify various phenomena such as synergism and inhibition. CalcuSyn software can process the data of individual drugs and combination drugs with constant-ratio or on-constant-ratio, and can evaluate the interaction of combination drugs by the combination index (CI) (Chou and Talalay, Adv. Enzyme Regul. 22:27-55 (1984) calculated by CalcuSyn software. Calculation formula for the combination index is shown in the following: Combination index=C1/IC1+C2/IC2 C1 and C2 are the respective concentrations of the first compound and the second compound at which the activity of achieving a specific physiological or medical purpose is 50% (or 75%, or 90%) when the first compound and the second compound are analyzed in combination; IC1 and IC2 are the respective concentrations at which the activity of achieving a specific physiological or medical purpose of the first compound and the second compound is 50% (or 75%, or 90%) when the first compound and the second compound are independently analyzed. […]
compound,measurement,setting,value
"O=c1cc(-c2ccc(O)c(O)c2)oc2cc(O)cc(O)c12 [Luteolin, luteolin]",inhibition at 3.125 µM,"Batch 1, luteolin 3.125 μM/0.89 μg/mL",0%
same,inhibition at 6.25 µM,"Batch 1, luteolin 6.25 μM/1.79 μg/mL",0.9%
same,inhibition at 12.5 µM,"Batch 1, luteolin 12.5 μM/3.58 μg/mL",17.2%
same,inhibition at 25 µM,"Batch 1, luteolin 25 μM/7.16 μg/mL",44.6%
same,inhibition at 50 µM,"Batch 1, luteolin 50 μM/14.31 μg/mL",67.7%
same,inhibition at 100 µM,"Batch 1, luteolin 100 μM/28.62 μg/mL",101%
same,inhibition at 1.5625 µM,"Batch 2, luteolin 1.5625 μM/0.45 μg/mL",11.3%
same,inhibition at 3.125 µM,"Batch 2, luteolin 3.125 μM/0.89 μg/mL",5.1%
same,inhibition at 6.25 µM,"Batch 2, luteolin 6.25 μM/1.79 μg/mL",19.6%
same,inhibition at 12.5 µM,"Batch 2, luteolin 12.5 μM/3.58 μg/mL",35%
same,inhibition at 25 µM,"Batch 2, luteolin 25 μM/7.16 μg/mL",53.8%
same,inhibition at 50 µM,"Batch 2, luteolin 50 μM/14.31 μg/mL",75.2%
same,inhibition at 0.625 µM,"Batch 3, luteolin 0.625 μM/0.18 μg/mL",1.9%
same,inhibition at 1.25 µM,"Batch 3, luteolin 1.25 μM/0.36 μg/mL",2.8%
same,inhibition at 2.5 µM,"Batch 3, luteolin 2.5 μM/0.72 μg/mL",4.3%
same,inhibition at 5 µM,"Batch 3, luteolin 5 μM/1.43 μg/mL",13.7%
same,inhibition at 10 µM,"Batch 3, luteolin 10 μM/2.86 μg/mL",31.9%
same,inhibition at 20 µM,"Batch 3, luteolin 20 μM/5.72 μg/mL",55.6%
same,inhibition at 0.3125 µM,"Batch 4, luteolin 0.3125 μM/0.09 μg/mL",0.4%
same,inhibition at 0.625 µM,"Batch 4, luteolin 0.625 μM/0.18 μg/mL",0%
same,inhibition at 1.25 µM,"Batch 4, luteolin 1.25 μM/0.36 μg/mL",0%
same,inhibition at 2.5 µM,"Batch 4, luteolin 2.5 μM/0.72 μg/mL",0%
same,inhibition at 5 µM,"Batch 4, luteolin 5 μM/1.43 μg/mL",0.8%
same,inhibition at 10 µM,"Batch 4, luteolin 10 μM/2.86 μg/mL",6.6%
same,inhibition at 0.15625 µM,"Batch 5, luteolin 0.15625 μM/0.04 μg/mL",11.4%
same,inhibition at 0.3125 µM,"Batch 5, luteolin 0.3125 μM/0.09 μg/mL",14%
same,inhibition at 0.625 µM,"Batch 5, luteolin 0.625 μM/0.18 μg/mL",4.3%
same,inhibition at 1.25 µM,"Batch 5, luteolin 1.25 μM/0.36 μg/mL",0%
same,inhibition at 2.5 µM,"Batch 5, luteolin 2.5 μM/0.72 μg/mL",0%
same,inhibition at 5 µM,"Batch 5, luteolin 5 μM/1.43 μg/mL",3.3%
same,inhibition at 3.125 µM,"Batch 6, luteolin 3.125 μM/0.89 μg/mL",0%
same,inhibition at 6.25 µM,"Batch 6, luteolin 6.25 μM/1.79 μg/mL",0.6%
same,inhibition at 12.5 µM,"Batch 6, luteolin 12.5 μM/3.58 μg/mL",18.5%
same,inhibition at 25 µM,"Batch 6, luteolin 25 μM/7.16 μg/mL",42.2%
same,inhibition at 50 µM,"Batch 6, luteolin 50 μM/14.31 μg/mL",57.8%
same,inhibition at 100 µM,"Batch 6, luteolin 100 μM/28.62 μg/mL",94.2%
same,inhibition at 3.125 µM,"Batch 7, luteolin 3.125 μM/0.89 μg/mL",8.6%
same,inhibition at 6.25 µM,"Batch 7, luteolin 6.25 μM/1.79 μg/mL",19%
same,inhibition at 12.5 µM,"Batch 7, luteolin 12.5 μM/3.58 μg/mL",37.5%
same,inhibition at 25 µM,"Batch 7, luteolin 25 μM/7.16 μg/mL",55.1%
same,inhibition at 50 µM,"Batch 7, luteolin 50 μM/14.31 μg/mL",70.1%
same,inhibition at 100 µM,"Batch 7, luteolin 100 μM/28.62 μg/mL",108%
same,inhibition at 3.125 µM,"Batch 8, luteolin 3.125 μM/0.89 μg/mL",5.2%
same,inhibition at 6.25 µM,"Batch 8, luteolin 6.25 μM/1.79 μg/mL",13.8%
same,inhibition at 12.5 µM,"Batch 8, luteolin 12.5 μM/3.58 μg/mL",33.5%
same,inhibition at 25 µM,"Batch 8, luteolin 25 μM/7.16 μg/mL",50.7%
same,inhibition at 50 µM,"Batch 8, luteolin 50 μM/14.31 μg/mL",63.6%
same,inhibition at 100 µM,"Batch 8, luteolin 100 μM/28.62 μg/mL",100%
same,inhibition at 3.125 µM,"Batch 9, luteolin 3.125 μM/0.89 μg/mL",4.2%
same,inhibition at 6.25 µM,"Batch 9, luteolin 6.25 μM/1.79 μg/mL",11%
same,inhibition at 12.5 µM,"Batch 9, luteolin 12.5 μM/3.58 μg/mL",30.1%
same,inhibition at 25 µM,"Batch 9, luteolin 25 μM/7.16 μg/mL",47.8%
same,inhibition at 50 µM,"Batch 9, luteolin 50 μM/14.31 μg/mL",62%
same,inhibition at 100 µM,"Batch 9, luteolin 100 μM/28.62 μg/mL",104%
